Data: US20250134855A1, “CO[…] AND METHODS OF USING SAME” (LYKOS THERAPEUTICS, INC., priority 2022, published 2025)
Like-named read-outs stand apart in the source and are kept apart here.

Experiments:
male and female rats = experiment: Fertility study, male and female rats; format: in vivo, rat
Description: MDMA (0, 2.5, 5, and 10 mg/kg/day) was orally administered to male and female rats before mating. Males were dosed once daily for 28 days prior to pairing and dosing continued until euthanasia. Females were dosed once daily for 21 days prior to pairing and dosing continued though gestational day seven.

rats [1] = experiment: 28-day repeat-dose toxicity, weekly oral, rats; details: any dose
rats [2] = experiment: Daily 28-day repeated dose toxicology study, rats; format: in vivo, rat; details: 0, 10, 50, or 100 mg/kg/day, daily 28 days
Description: Based on negative in vivo and in vitro genotoxicity studies, the carcinogenic risk of MDMA·HCl is low. No tumors were reported after daily 28-day repeated dose toxicology studies of MDMA in rats (0, 10, 50, or 100 mg/kg/day) or dogs (0, 3, 9, or 15 mg/kg/day).

MATE1 = MATE1 (Homo sapiens, UniProt Q96FL8); experiment: Transporter inhibition, MATE1; details: at supratherapeutic concentrations
[3] = test system: CYP2B6, CYP2D6, CYP2C19, CYP1A2, CYP3A4, CYP2C9, CYP2C8; experiment: CYP enzymes metabolizing MDMA; details: less contribution by CYP2C19, CYP1A2, CYP3A4, CYP2C9, and CYP2C8
OCT2 = OCT2 (Homo sapiens, UniProt O15244); experiment: Transporter inhibition, OCT2; details: at supratherapeutic concentrations
healthy individuals = experiment: Study MPKF: ECG / QTcF; format: in vivo, human
From the text: Specifically, there was no change in mean QTcF over time above 10 ms at any timepoint.

[4] = test system: bacterial reverse mutation assay (Ames test); experiment: In vitro bacterial reverse mutation assay (Ames test); format: cell-based; details: with or without metabolic activation
From the text: MDMA was not mutagenic with or without metabolic activation in the in vitro bacterial reverse mutation assay (Ames test).

OATP1B1 = OATP1B1 (Homo sapiens, UniProt Q9Y6L6); experiment: Transporter inhibition, OATP1B1
[5] = test system: participants with severe PTSD; experiment: MAPP1 Phase 3: safety, adverse events; format: in vivo, human
Description: MAPP1 was a Phase 3 randomized, placebo-controlled, 2-arm, double-blind, multi-site study conducted to investigate the efficacy and safety of MDMA-AT in participants with severe PTSD. This study is also discussed in Mitchell et. al., Nature Medicine 2021, 27, 1025-1033. This study included 3 experimental sessions of therapy combined with either MDMA·HCl or placebo. During Experimental Session 1, participants received a split dose of 120 mg (80 mg+40 mg).
There were 2 serious TEAEs in the placebo with therapy group (1 participant with 2 events of suicide attempt [1 moderate and 1 severe] and 1 participant with 1 event of suicidal ideation [severe], Listing 14.3.2.2.3). Adverse events of special interest included a subset of AEs involving cardiac function, suicidality, and MDMA abuse. There were 3 (6.5%) participants in the MDMA-AT group and 6 (13.6%) participants in the placebo with therapy group with a TEAE of special interest. The majority of AESIs were associated with suicidality (reported by […]) and 1 participant in the placebo group reported 2 AESIs that were associated with cardiac function (palpitations and irregular heart rate). […] A total of 4 participants discontinued study treatment due to a TEAE (MDMA: 1 participant [severe TEAE of depression]; placebo: 3 participants [1 participant with 2 serious adverse events (SAEs) of suicide attempt, 1 participant with a SAE of suicidal ideation, and 1 participant with 1 severe TEAE of insomnia]. The majority of participants in the MDMA-AT group (97.8%) and the placebo with therapy group (90.9%) had at least 1 temporally related TEAE (TEAEs that occurred during an experiment session or up to 2 days following); none of these events were SAEs. A listing of all TEAEs from MDMA-AT group with ≥5% incidence and twice prevalence of placebo group is provided below in Table 37. Table 37.

[6] = cited from earlier work
[7] = fasted group, 12-hour timepoint

MATE1, sequence (Q96FL8 whole entry): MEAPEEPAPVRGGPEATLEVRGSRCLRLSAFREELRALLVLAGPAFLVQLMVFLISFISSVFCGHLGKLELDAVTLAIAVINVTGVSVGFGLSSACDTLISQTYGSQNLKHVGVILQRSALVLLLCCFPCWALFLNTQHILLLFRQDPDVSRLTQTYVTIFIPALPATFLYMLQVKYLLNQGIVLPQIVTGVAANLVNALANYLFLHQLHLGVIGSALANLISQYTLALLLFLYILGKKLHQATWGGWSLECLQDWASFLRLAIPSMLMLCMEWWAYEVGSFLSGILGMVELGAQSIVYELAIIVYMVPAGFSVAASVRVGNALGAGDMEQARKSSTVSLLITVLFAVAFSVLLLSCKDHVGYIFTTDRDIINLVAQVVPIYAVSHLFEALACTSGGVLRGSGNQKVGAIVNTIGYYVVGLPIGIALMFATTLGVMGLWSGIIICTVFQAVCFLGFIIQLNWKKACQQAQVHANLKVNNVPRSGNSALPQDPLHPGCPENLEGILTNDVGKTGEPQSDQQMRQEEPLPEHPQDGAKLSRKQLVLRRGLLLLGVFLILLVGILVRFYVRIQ
OATP1B1, sequence (Q9Y6L6 whole entry): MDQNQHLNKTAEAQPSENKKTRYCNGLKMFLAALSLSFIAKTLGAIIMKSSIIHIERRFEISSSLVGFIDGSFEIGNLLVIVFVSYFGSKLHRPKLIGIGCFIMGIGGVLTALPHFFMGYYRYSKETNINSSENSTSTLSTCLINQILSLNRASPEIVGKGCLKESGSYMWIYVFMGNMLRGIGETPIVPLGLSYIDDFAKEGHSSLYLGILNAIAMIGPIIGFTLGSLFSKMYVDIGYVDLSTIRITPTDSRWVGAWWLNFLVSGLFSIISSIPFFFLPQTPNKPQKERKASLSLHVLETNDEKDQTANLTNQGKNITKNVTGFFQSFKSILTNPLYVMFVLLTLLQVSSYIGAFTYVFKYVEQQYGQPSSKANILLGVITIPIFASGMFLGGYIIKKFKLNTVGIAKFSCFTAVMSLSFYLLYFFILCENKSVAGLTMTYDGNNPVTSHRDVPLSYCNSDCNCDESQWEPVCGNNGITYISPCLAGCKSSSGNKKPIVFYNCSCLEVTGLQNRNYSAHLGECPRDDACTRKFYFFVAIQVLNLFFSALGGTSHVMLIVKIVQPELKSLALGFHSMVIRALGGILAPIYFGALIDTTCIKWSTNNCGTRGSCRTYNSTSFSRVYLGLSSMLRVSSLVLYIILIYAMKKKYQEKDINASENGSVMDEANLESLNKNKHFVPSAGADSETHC
OCT2, sequence (O15244 whole entry): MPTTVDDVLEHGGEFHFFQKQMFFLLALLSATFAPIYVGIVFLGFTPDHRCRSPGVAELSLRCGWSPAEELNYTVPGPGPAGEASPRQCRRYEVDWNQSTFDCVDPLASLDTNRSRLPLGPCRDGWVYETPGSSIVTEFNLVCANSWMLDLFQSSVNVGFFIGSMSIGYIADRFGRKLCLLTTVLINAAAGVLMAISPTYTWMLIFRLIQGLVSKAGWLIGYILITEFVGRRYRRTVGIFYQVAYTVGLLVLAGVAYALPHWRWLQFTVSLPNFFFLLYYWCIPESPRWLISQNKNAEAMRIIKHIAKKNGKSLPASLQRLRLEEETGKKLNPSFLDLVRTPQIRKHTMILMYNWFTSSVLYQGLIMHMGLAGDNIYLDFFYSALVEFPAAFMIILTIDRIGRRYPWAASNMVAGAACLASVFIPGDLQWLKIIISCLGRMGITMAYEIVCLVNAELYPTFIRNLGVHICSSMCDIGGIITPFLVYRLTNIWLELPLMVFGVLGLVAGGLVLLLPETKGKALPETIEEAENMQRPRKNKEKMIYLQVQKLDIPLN

CNC(C)Cc1ccc2c(c1)OCO2 (stereo not shown) [MDMA, 3,4-methylenedioxymethamphetamine]
mean prostate gland weights (male and female rats; all MDMA-treated males relative to controls): decreased
fertility and reproductive performance (male and female rats; oral, up to the highest dose evaluated (10 mg/kg/day)): No effect on fertility and reproductive performance
neurohistopathology of the brain (rats [1]): No morphologic changes
tumors (rats [2]): No tumors
inhibition of MATE1 (MATE1): inhibits
metabolizing CYP enzymes [3]: metabolized primarily by CYP2B6 and CYP2D6
inhibition of OCT2 (OCT2): inhibits
change in mean QTcF over time (healthy individuals; any timepoint): ≤ 10 ms
participants with mean QTcF increase from baseline above 30 ms (healthy individuals; [7]): 6.3%
participants with mean QTcF increase from baseline above 30 ms, n (healthy individuals; [7]): 1 participant
impact on ECG parameters (healthy individuals; in vivo): no significant impact
QTcF intervals (healthy individuals; no participant above, any group): ≤ 450 ms
mutagenicity, Ames test [4]: not mutagenic
inhibition of OATP1B1 (OATP1B1): not an inhibitor
AESIs of MDMA abuse ([5]; MAPP1): no AESIs of MDMA abuse
TEAE Blood pressure increased, % ([5]; MAPP1): (10.9) %
TEAE Bruxism, % ([5]; MAPP1): (13.0) %
TEAE Chills, % ([5]; MAPP1): (6.5) %
TEAE Decreased appetite, % ([5]; MAPP1): (52.2) %
TEAE Dizziness postural, % ([5]; MAPP1): (13.0) %
TEAE Dry mouth, % ([5]; MAPP1): (10.9) %
TEAE Feeling cold, % ([5]; MAPP1): (19.6) %
TEAE Feeling jittery, % ([5]; MAPP1): (10.9) %
TEAE Hyperhidrosis, % ([5]; MAPP1): (21.7) %
TEAE Intrusive thoughts, % ([5]; MAPP1): (8.7) %
TEAE Micturition urgency, % ([5]; MAPP1): (6.5) %
TEAE Muscle tightness, % ([5]; MAPP1): (60.9) %
TEAE Muscle twitching, % ([5]; MAPP1): (6.5) %
TEAE Musculoskeletal pain, % ([5]; MAPP1): (8.7) %
TEAE Mydriasis, % ([5]; MAPP1): (15.2) %
TEAE Nausea, % ([5]; MAPP1): (30.4) %
TEAE Nervousness, % ([5]; MAPP1): (6.5) %
TEAE Non-cardiac chest pain, % ([5]; MAPP1): (8.7) %
TEAE Nystagmus, % ([5]; MAPP1): (13.0) %
TEAE Pain, % ([5]; MAPP1): (8.7) %
TEAE Pollakiuria, % ([5]; MAPP1): (8.7) %
TEAE Pyrexia, % ([5]; MAPP1): (6.5) %
TEAE Restlessness, % ([5]; MAPP1): (15.2) %
TEAE Somnolence, % ([5]; MAPP1): (6.5) %
TEAE Stress, % ([5]; MAPP1): (8.7) %
TEAE Substance use, % ([5]; MAPP1): (6.5) %
TEAE Vision blurred, % ([5]; MAPP1): (8.7) %
TEAE Vomiting, % ([5]; MAPP1): (8.7) %
participants with a TEAE of special interest ([5]; MAPP1): 6.5%
At least one Serious TEAE Leading to Death, % ([5]; MAPP1, Safety Set): (0.0) %
At least one Serious TEAE, % ([5]; MAPP1, Safety Set): (0.0) %
At least one TEAE of Special Interest, % ([5]; MAPP1, Safety Set): (6.5) %
Discontinued study treatment due to any TEAE(s), % ([5]; MAPP1, Safety Set): (2.2) %
Participants with at least 1 TEAE during Experimental Sessions and 2 Days Following, % ([5]; MAPP1, Safety Set): (97.8) %
Subjects with at least 1 Severe TEAE, % ([5]; MAPP1, Safety Set): (8.7) %
Subjects with at least 1 TEAE, % ([5]; MAPP1, Safety Set): (100.0) %
heart rate and blood pressure during experimental sessions ([5]; MAPP1, dose-dependent, no clinical intervention required): transient increases
participants with at least 1 temporally related TEAE ([5]; MAPP1, during an experiment session or up to 2 days following): 97.8%
unchanged MDMA excreted in urine ([6]; oral 1.0 mg/kg MDMA): 8%
unchanged MDMA excreted in urine ([6]; oral 1.6 mg/kg MDMA): 11%
